Laboratory results as given in US4349667A, “Aminoglycoside antibiotic G-367-2” (Toyo Jozo Kabushiki Kaisha, priority 1979, dated 1982).

Columns and labels:
Assay type in all cases: cell-based
Gram negative bacteria = assay: antibacterial effect against Gram negative bacteria
Excerpt: (§1) The antimicrobial spectrum (minimum inhibitory concentration, MIC) of G-367-2 by agar dilution method is as follows: […]

[1] = tested on: Pseudomonas aeruginosa ML4561 RP4; assay: antimicrobial spectrum (MIC) by agar dilution method; conditions: ML4561RP4, read-out: minimum inhibitory concentration, MIC
Excerpt: as §1

[2] = tested on: Enterobacter aerogenes 0655; assay: as above; conditions: Klebsiella aerogenes, read-out: minimum inhibitory concentration, MIC
Excerpt: as §1

[3] = tested on: Enterobacter cloacae GN336; assay: as above; conditions: read-out: minimum inhibitory concentration, MIC
Excerpt: as §1

[4] = tested on: Pseudomonas aeruginosa IAM1095; assay: as above; conditions: read-out: minimum inhibitory concentration, MIC
Excerpt: as §1

[5] = tested on: Bacillus subtilis ATCC 6633; assay: as above; conditions: ATCC6633, read-out: minimum inhibitory concentration, MIC
Excerpt: as §1

[6] = tested on: Staphylococcus epidermidis sp-al-1; assay: as above; conditions: SPAL1, read-out: minimum inhibitory concentration, MIC
Excerpt: as §1

[7] = tested on: Staphylococcus aureus MS 27; assay: as above; conditions: MS27, read-out: minimum inhibitory concentration, MIC
Excerpt: as §1

[8] = tested on: Pseudomonas aeruginosa ML4561; assay: as above; conditions: ML4561, read-out: minimum inhibitory concentration, MIC
Excerpt: as §1

[9] = tested on: Salmonella enteritidis Gartner; assay: as above; conditions: Salmonella enterica, read-out: minimum inhibitory concentration, MIC
Excerpt: as §1

Proteus rettgeri ACR = assay: as above; conditions: Providencia rettgeri, read-out: minimum inhibitory concentration, MIC
Excerpt: as §1

[10] = tested on: Citrobacter freundii GN346; assay: as above; conditions: GN346, read-out: minimum inhibitory concentration, MIC
Excerpt: as §1

Serratia marcescens = assay: as above; conditions: read-out: minimum inhibitory concentration, MIC
Excerpt: as §1

[11] = tested on: Pseudomonas aeruginosa 1946; assay: as above; conditions: read-out: minimum inhibitory concentration, MIC
Excerpt: as §1

Shigella sonnei E33 = assay: as above; conditions: read-out: minimum inhibitory concentration, MIC
Excerpt: as §1

[12] = tested on: Staphylococcus aureus 0119; assay: as above; conditions: read-out: minimum inhibitory concentration, MIC
Excerpt: as §1

[13] = tested on: Pseudomonas aeruginosa ML4561 Rms164-1; assay: as above; conditions: ML4561RMS1641, read-out: minimum inhibitory concentration, MIC
Excerpt: as §1

Escherichia coli W3630 = assay: as above; conditions: read-out: minimum inhibitory concentration, MIC
Excerpt: as §1

Proteus morganii 0239 = assay: as above; conditions: Morganella morganii, read-out: minimum inhibitory concentration, MIC
Excerpt: as §1

[14] = tested on: Pseudomonas aeruginosa ML4561 Rms166; assay: as above; conditions: ML4561RMS166, read-out: minimum inhibitory concentration, MIC
Excerpt: as §1

[15] = tested on: Escherichia coli W3630 RGN14; assay: as above; conditions: W3630RGN14, read-out: minimum inhibitory concentration, MIC
Excerpt: as §1

[16] = tested on: Streptococcus pyogenes N.Y.5; assay: as above; conditions: read-out: minimum inhibitory concentration, MIC
Excerpt: as §1

[17] = tested on: Pseudomonas maltophilia 1850; assay: as above; conditions: Stenotrophomonas maltophilia, read-out: minimum inhibitory concentration, MIC
Excerpt: as §1

[18] = tested on: Staphylococcus aureus ATCC 6538P; assay: as above; conditions: ATCC6538P, read-out: minimum inhibitory concentration, MIC
Excerpt: as §1

[19] = tested on: Pseudomonas aeruginosa 2512; assay: as above; conditions: read-out: minimum inhibitory concentration, MIC
Excerpt: as §1

Pseudomonas putida 1842 = assay: as above; conditions: read-out: minimum inhibitory concentration, MIC
Excerpt: as §1

[20] = tested on: Klebsiella pneumonia ATC 10031; assay: as above; conditions: Klebsiella pneumoniae, ATC10031, read-out: minimum inhibitory concentration, MIC
Excerpt: as §1

[21] = tested on: Escherichia coli NIHJ-JC2; assay: as above; conditions: NIHJJC2, read-out: minimum inhibitory concentration, MIC
Excerpt: as §1

CNC1C(O)C(OC2C(N)CC(N)C(OC3OC(CN)=CCC3N)C2O)OCC1(C)O (stereo not shown) [G-367-2]
strong antibacterial effect: antibacterial effect (Gram negative bacteria)
12.5 µg/mL: MIC [7] | MIC [12] | MIC [18]
25 µg/mL: MIC [4]
1.6 µg/mL: MIC [2] | MIC [3] | MIC [5] | MIC [6] | MIC (Escherichia coli W3630) | MIC [15] | MIC [20]
> 100 µg/mL: MIC [11] | MIC [14] | MIC [17] | MIC [19] | MIC (Pseudomonas putida 1842)
6.3 µg/mL: MIC [1] | MIC (Proteus morganii 0239) | MIC [16]
3.1 µg/mL: MIC [9] | MIC (Proteus rettgeri ACR) | MIC [10] | MIC (Shigella sonnei E33) | MIC [21]
50 µg/mL: MIC (Serratia marcescens) | MIC [13]
125 µg/mL: MIC [8]
